According to patent US20250177408A1, “INHIBITOR OF INTERACTION BETWEEN YAP/TAZ AND TEAD, PREPARATION THEREOF, PHARMACEUTICAL COMPOSITION THEREOF AND USE THEREOF” (ETERN BIOPHARMA (SHANGHAI) CO., LTD., priority 2022, published 2025):

Key:
[1] = target: YAP-TEAD protein interaction (His-TEAD1 (209-426) protein, Bio-YAP peptide (60-100)) (Homo sapiens, UniProt P28347); test: YAP-TEAD protein interaction HTRF experiment; assay type: binding; details: His-TEAD1 (209-426) 10 nM, Bio-YAP peptide 50 nM, read-out: Activity of each compound in blocking YAP-TEAD protein interaction (grades of IC50 values)
Method in brief: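 His-TEAD1 (209-426) at 10 nM final was preincubated 20 min at RT with compounds (10-point 3-fold dilutions, duplicates, 1% DMSO), then Bio-YAP peptide, 10 min. Anti-His-Eu cryptate/streptavidin-XL665 added for 1 h at RT; HTRF read at ex 320 nm, Em665/Em620 ratio ×10000, IC50 from % inhibition.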

MSTO-211H cells = test: Cell proliferation inhibition experiment (CellTiter-Glo); assay type: cell-based; details: Homo sapiens, 96 hours, read-out: Inhibitory activity of each compound on the proliferation of MSTO-211H cells (grades of IC50 values)
Description: In this example, the intracellular ATP was quantitatively determined by the CellTiter-Glo luminescence cell viability detection kit to detect the number of living cells in the culture.
Step 1: MSTO-211H (ATCC, CRL-2081TM) or NCI-H2052 (ATCC, CRL-5915TM) cells were inoculated in a 96-well plate at a density of 1500 cells per well with a volume of 100 μL per well, and the cells were incubated overnight in a 37° C., 5% carbon dioxide incubator. The culture medium used was RPMI1640 medium (GIBCO-A10491-01)+10% FBS (GIBCO-10099141C)+1% penicillin/streptomycin (Pen/Strep) (GIBCO-15070-063).
Step 2: The cells were treated with the compounds to be tested. The compounds to be tested were 3-fold diluted, and a total of 9 concentration gradients were set up; a certain volume of DMSO or the compounds to be tested was added to each well, respectively, and 2 replicates were set up for each concentration, and the final concentration of DMSO was controlled to be no higher than 0.5%. The cells were incubated for 96 hours in a 37° C., 5% carbon dioxide incubator.
Step 3: Cell viability was detected in the control group and treatment group using CellTiter-Glo Luminescent Cell Viability Assay kit (Promega, G7570). 50 μL of CellTiter-Glo was added to each well, mixed well, and incubated at room temperature for 10 minutes. The signal was read using En Vision® Multilabel Plate Reader (Perkin Elmer).
The inhibition percentage (%) was calculated using the following formula: […]
Using Graphpad Prism software, the IC50 values of the compounds inhibiting the CTG signal of cell proliferation activity was calculated.

Chain of YAP-TEAD protein interaction (His-TEAD1 (209-426) protein, Bio-YAP peptide (60-100)) (P28347 209-426): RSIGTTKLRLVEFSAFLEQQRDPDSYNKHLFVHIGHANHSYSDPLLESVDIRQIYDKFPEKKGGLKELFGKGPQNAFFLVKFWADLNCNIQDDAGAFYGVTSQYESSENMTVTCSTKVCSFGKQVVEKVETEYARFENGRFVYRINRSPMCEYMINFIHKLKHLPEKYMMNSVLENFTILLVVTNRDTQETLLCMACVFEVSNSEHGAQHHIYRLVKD

Row | Compound | IC50 [1] | IC50 (MSTO-211H cells)
1 | NC(=O)c1cc2c(c(F)c1-c1c(Cl)c(F)cc3c1C[C@](c1ccccc1)([C@@H]1CCCN1)O3)OCc1nncn1-2 (atropisomer, axis not shown) [Compound 42, (S)-7-((S)-5-Chloro-6-fluoro-2-phenyl-2-((S)-pyrrolidin-2-yl)-2,3-dihydrobenzofuran-4-yl)-6-fluoro-4H-benzo[b][1,2,4]triazolo[4,3-d][1,4]oxazine-8-carboxamide] | < 50 nM | 500 to 5000 nM
2 | [2H]c1c([2H])c([2H])c([C@]2([C@@H]3CCCN3)Cc3c(cc(F)c(Cl)c3-c3c(C(N)=O)cc4c(c3F)OCc3nn(C)cc3-4)O2)c([2H])c1[2H] (atropisomer, axis not shown) [Compound 116, (S)-7-((S)-5-Chloro-6-fluoro-2-(phenyl-d5)-2-((S)-pyrrolidin-2-yl)-2,3-dihydrobenzofuran-4-yl)-6-fluoro-2-methyl-2,4-dihydrochromeno[3,4-c]pyrazole-8-carboxamide] | < 50 nM | < 200 nM
3 | Cn1ncc2c(c1=O)Oc1c(cc(C(N)=O)c(-c3c(Cl)c(F)cc4c3C[C@](c3ccccc3)([C@@H]3CCCN3)O4)c1F)O2 (atropisomer, axis not shown) [Compound 105, (S)-8-((S)-5-Chloro-6-fluoro-2-phenyl-2-((S)-pyrrolidin-2-yl)-2,3-dihydrobenzofuran-4-yl)-9-fluoro-2-methyl-1-oxo-1,2-dihydrobenzo[5,6][1,4]dioxo[2,3-d]pyridazine-7-carboxamide] | < 50 nM | < 200 nM
4 | CCn1ncc2c(c1=O)Oc1c(cc(C(N)=O)c(-c3c(Cl)c(F)cc4c3C[C@](c3ccccc3)([C@@H]3CCCN3)O4)c1F)O2 (atropisomer, axis not shown) [Compound 109, (S)-8-((S)-5-Chloro-6-fluoro-2-phenyl-2-((S)-pyrrolidin-2-yl)-2,3-dihydrobenzofuran-4-yl)-2-ethyl-9-fluoro-1-oxo-1,2-dihydrobenzo[5,6][1,4]dioxo [2,3-d]pyridazine-7-carboxamide] | < 50 nM | < 200 nM
5 | NC(=O)c1cc2c(c(F)c1-c1c(Cl)c(F)cc3c1C[C@](c1ccccc1)([C@@H]1CCCN1)O3)Oc1cnn(CCF)c(=O)c1O2 (atropisomer, axis not shown) [Compound 119, (S)-8-((S)-5-Chloro-6-fluoro-2-phenyl-2-((S)-pyrrolidin-2-yl)-2,3-dihydrobenzofuran-4-yl)-9-fluoro-3-(2-fluoroethyl)-4-oxo-3,4-dihydrobenzo[5,6][1,4]dioxo[2,3-d]pyridazine-7-carboxamide] | < 50 nM | 200 to 500 nM
6 | CNC(=O)c1cc2c(c(F)c1-c1c(Cl)c(F)cc3c1C[C@](c1ccccc1)([C@@H]1CCCN1)O3)Oc1c(cnn(CC(F)(F)F)c1=O)O2 (atropisomer, axis not shown) [Compound 144] | < 50 nM | < 200 nM
7 | CCC(=O)N1CCOc2c1cc(C(N)=O)c(-c1c(Cl)c(F)cc3c1C[C@](c1ccccc1)([C@@H]1CCCN1)O3)c2F (atropisomer, axis not shown) [Compound I-29, (S)-7-((S)-5-Chloro-6-fluoro-2-phenyl-2-((S)-pyrrolidin-2-yl)-2,3-dihydrobenzofuran-4-yl)-8-fluoro-4-propionyl-3,4-dihydro-2H-benzo[b][1,4]oxazine-6-carboxamide] | < 50 nM | 200 to 500 nM
8 | NC(=O)c1cc2c(c(F)c1-c1c(Cl)c(F)cc3c1C[C@](c1ccccc1)([C@@H]1CCCN1)O3)Oc1nc(CO)cnc1O2 (atropisomer, axis not shown) [Compound 101, (S)-8-((S)-5-Chloro-6-fluoro-2-phenyl-2-((S)-pyrrolidin-2-yl)-2,3-dihydrobenzofuran-4-yl)-9-fluoro-2-(hydroxymethyl)benzo[5,6] [1,4]dioxo [2,3-b]pyrazine-7-carboxamide] | < 50 nM | < 200 nM
